The source of these data is article PMC6350249 (The Journal of organic chemistry, 2016).

The target of assay [1] is T1, CH1 domain of p300 and the C-TAD domain of HIF-1α (Homo sapiens, UniProt Q09472). Nature of the assay: HIF-1α/p300 assay, dose–response version of the screening assay. The settings on record: for inhibition of the protein–protein interaction: at 500 μM (high test concentration). Format: binding.
In assay [2] the test system is chloroquine-resistant (W2) strain of Plasmodium falciparum. Nature of the assay: Antimalarial inhibitory activity, chloroquine-resistant. Format: cell-based. The settings on record: P. falciparum W2 strain.
Assay [3] deals with chloroquine-sensitive (D6) strain of Plasmodium falciparum. Nature of the assay: Antimalarial inhibitory activity, chloroquine-sensitive. Format: cell-based. The settings on record: P. falciparum D6 strain.
Assay [4] concerns the target T1, CH1 domain of p300 and the C-TAD domain of HIF-1α. The settings on record: earlier report; cited from earlier work.

T1 sequence (Q09472 331-417 limits assumed): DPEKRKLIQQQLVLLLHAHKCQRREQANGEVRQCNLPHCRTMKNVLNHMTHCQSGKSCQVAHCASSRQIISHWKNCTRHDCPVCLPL

Consider (−)-(S)-eudistidine C [1b], for which the IC50 – broadly, the point on the concentration scale where inhibition reaches its midpoint – in assay [1] (HIF-1α/p300 assay) turned out to be 276000 nM. Also, the “antimalarial effect (in words)” value in assay [2] and in assay [3] was “significant antimalarial effects” in each case.

Consider (+)-(R)-eudistidine C [1a], for which, in assay [1], the “inhibition of the protein–protein interaction” value was 27%. Moreover, the “antimalarial effect (in words)” value in assay [2] and in assay [3] was “significant antimalarial effects” each time.

In the case of `COc1ccc(C2(c3[nH]c(N)nc3-c3ccc(O)cc3)N=C3N=CC=C4c5ccccc5N=C2N43)cc1` (stereo not drawn) [compound 1, eudistidine C], in assay [1], the “inhibition of the protein–protein interaction” value was “approximately 48%”.

In the case of `COc1ccc(C2(O)N=C3N=CC=C4c5ccccc5N=C2N43)cc1` (stereo not drawn) [compound 2, eudistidine A], the results for the IC50 in assay [2] and in assay [3] were 1100 nM and 1400 nM, respectively. Moreover, the “antimalarial effect (in words)” value in assay [2] and in assay [3] was “significant antimalarial effects” each time. Further, in assay [4], the “inhibition of the protein–protein interaction between p300 and HIF-1α (in words)” value is reported as “inhibited”.
